Experimental data published in patent publication US20240335427A1, “SMALL MOLECULE INHIBITION OF DEUBIQUITINATING ENZYME JOSEPHIN DOMAIN CONTAINING 1 (JOSD1) AS A TARGETED THERAPY FOR LEUKEMIAS WITH MUTANT JANUS KINASE 2 (JAK2)” (DANA-FARBER CANCER INSTITUTE, INC., priority 2021, published 2024).

Legend:
UCHL1 = UCHL1 (Homo sapiens (Human), UniProt P09936); experiment: UCHL1 biochemical inhibition (ubiquitin hydrolase activity, purified enzyme)
USP30 = USP30 (Homo sapiens (Human), UniProt Q70CQ3); experiment: USP30 biochemical IC50
[1] = tested on: Ba/F3-EPOR-JAK2-V617F-expressing cells; experiment: Ba/F3 cell proliferation (CellTiter Glo); assay type: cell-based, murine
Description: Proliferation and Drug Combination Studies. Proliferation and drug combination studies were carried out as previously described (Yang, et al., 2020, British Journal of Cancer, 122:1175-84).
As toxicities can result from small molecule targeting of both oncogenic mutated JAK2 as well as its non-mutated counterpart, a chemical genetics screen was designed and performed of a DUB-focused small molecule inhibitor library with the goal of leveraging crosstalk between phosphorylation and ubiquitination to identify DUB inhibitors able to selectively degrade mutant JAK2 while sparing wt JAK2. Of relevance, activated FLT3 can be selectively degraded over the wt enzyme by inhibition of the DUB, USP10, (Wernig, et al., 2008, Blood, 111(7):3751-9) and similar to FLT3, JAK2 is ubiquitinated in an activation-dependent manner. In brief, the library of known and novel DUB inhibitors was evaluated for ability to suppress growth of Ba/F3-EPOR-JAK2-V617F-expressing cells selectively over Ba/F3-EPOR cells growing in the presence of interleukin-3.
(§1) A broader range of compounds 1 and 2, including concentrations lower than 1 μM, were also tested on growth of EPOR-JAK2-V617F-expressing Ba/F3 cells and parental Ba/F3 EpoR+ cells (24 hours treatment on 4000 cells per well) (FIG. 18-FIG. 18B). Cell growth inhibition (FIG. 17A-FIG. 17B, FIG. 18A-FIG. 18B) was tested on Ba/F3-EPOR-JAK2-V617F (-IL-3/WEHI) and parental Ba/F3-EPOR cells (+IL-3/WEHI) plated at 2000 cells per well, at 1, 3 and 10 μM for 24 hours using the Promega CellTiter Glo® assay.

JAK2-V617F = experiment: JAK2 protein level by western blotting in Ba/F3-EPOR-JAK2-V617F cells; assay type: cell-based
Description: Immunoblotting and Immunoprecipitation. Protein lysate preparation, immunoblotting, and immunoprecipitation were carried out as previously described (Lamberto, et al., 2017 Cell Chem Biol., 224(12):1490-500 e11). Briefly, 0.7×10^6 cells were treated with compounds 1 and 2 at 0, 5, 10, […], cells were collected, and lysate was prepared in radioimmunoprecipitation assay (RIPA) buffer, JAK family and downstream signaling protein levels were detected by western blotting with the indicated antibodies. For immunoprecipitation, 1 mg protein for each sample was prepared and 1 μg antibody was used, immunoglobulin G (IgG) was added in same amount as nontargeting control.
as §1

wt JAK2 = wt JAK2 (Mus musculus (Mouse), UniProt Q62120); experiment: JAK2 protein level by western blotting in Ba/F3-EPOR-JAK2 wt cells; assay type: cell-based
Description: Immunoblotting and Immunoprecipitation. Protein lysate preparation, immunoblotting, and immunoprecipitation were carried out as previously described (Lamberto, et al., 2017 Cell Chem Biol., 224(12):1490-500 e11). Briefly, 0.7×10^6 cells were treated with compounds 1 and 2 at 0, 5, 10, and 20 μM for 16 or 24 hours, cells were collected, and lysate was prepared in radioimmunoprecipitation assay (RIPA) buffer, JAK family and downstream signaling protein levels were detected by western blotting with the indicated antibodies. For immunoprecipitation, 1 mg protein for each sample was prepared and 1 μg antibody was used, immunoglobulin G (IgG) was added in same amount as nontargeting control.

HEL cells = experiment: HEL cell growth inhibition by fresh or aged drug stocks (stability); assay type: cell-based, human; details: stocks stored two to three years at −20° Celsius; 2.5, 5, 10, 20 μM, 24 hours
Description: Fresh or aged stocks of compounds 1 and 2 were tested for the ability to inhibit HEL cell growth at 2.5, 5, 10, and 20 μM of each drug after 24 hours (FIG. 19A-FIG. 19B).
The CellTiter Glo® assay was performed using HEL cells seeded at 1000 cells/well of a 96-well plate. The “fresh” drug stocks were obtained frozen (stored at −20° Celsius) within days of executing the proliferation experiment for which results are shown. The “aged” drug stocks were obtained from freeze-thawed stocks serially diluted and stored at −20° Celsius in the laboratory. The “aged” stocks were stored between at least two years to three years at −20° Celsius with little to no freeze-thaw cycles prior to execution of the proliferation experiment for which results are shown. “Aged” stocks may be stored for several years (e.g., at least one year, at least two years, at least three years, at least four years or more) at −20° Celsius prior to use.

SOCS1 = SOCS1 (Homo sapiens (Human), UniProt O15524); experiment: SOCS1 expression in HEL cells by western blotting; assay type: cell-based; details: 5 μM
Description: (§2) With JOSD1 as the prime candidate, JOSD1 binding and inhibition was evaluated by the compounds. First, targeted engagement was confirmed by showing competition with DUB ABP in HEL-FLAG-HA-JOSD1 cells following treatment with the two agents (FIG. 4D). The structures for negative control compounds 66 and 67 are shown below. In addition, the effects of small molecule inhibition of JOSD1 was investigated on MCL-1, an established substrate of JOSD1 (Wu, et al., 2020 Cell Death Differ., 27(1):55-70). […] Other exemplary compounds that inhibit DUBs are listed below in Table 3 (See Supra, ¶ [0063] for structures)

MCL-1 = MCL-1 (Homo sapiens (Human), UniProt Q07820); experiment: MCL-1 expression in HEL cells by western blotting; assay type: cell-based; details: 10-20 μM
Description: as §2

[2] = tested on: JAK2-V617F-positive primary AML patient samples; experiment: AML liquid culture proliferation, primary patient samples; assay type: cell-based, human
Description: AML liquid culture proliferation and colony assay studies. Frozen vials of bone marrow from AML patients identified as harboring JAK2-V617F were previously Ficoll®-purified to obtain mononuclear cells and thawed prior to use in studies.

normal bone marrow cells = experiment: Normal bone marrow colony assay; assay type: cell-based, human
Description: Normal human bone marrow was also analyzed in a colony assay: 24-well plates seeded with 200 cells/well in MethoCult™ H4434 Classic (methylcellulose-based medium with recombinant cytokines for human cells) ([…] Technologies™ INC., Vancouver, British Columbia, Canada). The plates contained targeted JOSD1 inhibitors at the indicated concentrations. Plates were incubated at 37° C. in 5% CO2 for >1 week, and then myeloid and erythroid colonies (early progenitors with erythroid and myeloid components: colony-forming unit for granulocytes and macrophages (CFU-GM), CFU-erythroid (E), BFU-E, and CFU-granulocyte, erythroid, macrophage, megakaryocyte (GEMM) were counted on an inverted microscope.

Chain of UCHL1 (P09936 whole entry, species assumed): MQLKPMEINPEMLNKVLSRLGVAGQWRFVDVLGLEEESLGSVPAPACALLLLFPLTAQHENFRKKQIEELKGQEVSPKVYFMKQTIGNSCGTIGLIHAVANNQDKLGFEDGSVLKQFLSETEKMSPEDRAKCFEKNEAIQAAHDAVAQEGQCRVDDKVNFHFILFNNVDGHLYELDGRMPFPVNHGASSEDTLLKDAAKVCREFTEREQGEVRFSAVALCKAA
Chain of USP30 (Q70CQ3 whole entry, species assumed): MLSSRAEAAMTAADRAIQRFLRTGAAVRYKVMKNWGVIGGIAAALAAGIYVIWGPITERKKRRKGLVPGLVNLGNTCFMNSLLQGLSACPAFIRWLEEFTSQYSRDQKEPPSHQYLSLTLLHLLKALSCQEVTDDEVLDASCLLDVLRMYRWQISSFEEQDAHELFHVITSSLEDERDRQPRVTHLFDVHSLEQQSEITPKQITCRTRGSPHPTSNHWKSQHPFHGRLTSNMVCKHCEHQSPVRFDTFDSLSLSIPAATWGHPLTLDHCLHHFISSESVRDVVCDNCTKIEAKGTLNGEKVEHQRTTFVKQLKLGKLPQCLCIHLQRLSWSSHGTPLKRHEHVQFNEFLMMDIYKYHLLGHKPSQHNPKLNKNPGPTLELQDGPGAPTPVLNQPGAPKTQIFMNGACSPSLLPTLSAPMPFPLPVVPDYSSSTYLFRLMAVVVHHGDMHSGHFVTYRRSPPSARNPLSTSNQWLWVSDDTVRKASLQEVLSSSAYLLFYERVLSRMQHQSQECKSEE

## Cc1noc(C)c1-c1cccc2nc(NC(=O)[C@H]3CCN(C#N)C3)sc12 [Compound 2, (S)-1-cyano-N-(7-(3,5-dimethylisoxazol-4-yl)benzo[d]thiazol-2-yl)pyrrolidine-3-carboxamide]
UCHL1
  UCHL1 biochemical IC50 (range in words): several hundred
USP30
  USP30 biochemical IC50 (range in words): several hundred
[1]
  killing of Ba/F3-EPOR-JAK2-V617F cells compared to wt JAK2-expressing parental Ba/F3 cells: selective killing
[1]; 1, 3 and 10 μM, 24 hours, independent experiments
  cell growth inhibition: inhibit growth
JAK2-V617F; 18 hours, 10 μM compound 1 or 5 μM compound 2
  JAK2 degradation, independent western blotting: degradation of JAK2
JAK2-V617F; Ba/F3-EPOR-JAK2-V617F-expressing cells
  JAK2-V617F protein level: decreases in JAK2-V617F protein
Wt JAK2
  JAK2 levels in wt cells: little to no impact on JAK2 levels
HEL cells
  stability: growth inhibition by aged stocks versus fresh stocks: comparable cell growth inhibition
SOCS1
  SOCS1 expression: decrease
MCL-1
  MCL-1 expression: decrease
[2]; compound 2: 24 h treatment, ruxolitinib: FIG. 16C
  potency against JAK2-V617F-positive cells versus normal bone marrow cells: higher potency exhibited against JAK2-V617F-positive cells than normal bone marrow cells
[2]; starting at concentrations around 1 μM
  primary cell viability: concentration-dependent decrease in primary cell viability
Normal bone marrow cells; 5 μM or higher
  normal bone marrow colony formation: significantly impaired
Normal bone marrow cells; concentrations up to 2.5 μM
  normal bone marrow colony formation: colonies were able to form
